Tested on: strains of E. cloacae complex
Assay: E. cloacae complex polymyxin B survival assay
Type: cell-based, Enterobacter cloacae complex
Settings: 5 strains expressing 2-hydroxymyristate vs 5 strains not expressing it; 1, 3 and 10 μg/ml; 4 hours
Protocol: Strains of the Enterobacter complex were selected.
The Enterobacter strains preserved in a tube frozen with 30% glycerol are transplanted in a planktonic culture in 20 ml of an LB culture medium. After incubation at 37° C. overnight, 1 ml of the culture diluted to 10^7 is brought into contact with increasing concentrations of polymyxin B (1 μg/ml, 3 μg/ml and 10 μg/ml). A tube without antibiotic is added as a control.
All the tubes are incubated at 37° C. with shaking for an additional 4 hours. The cultures are then diluted and spread on LB agar Petri dishes.
The dishes are incubated at 37° C. overnight and the colonies are counted.
Percentage survival is computed as follows:
(CFU polymyxin B/CFU control)×100
5 strains of E. cloacae complex expressing 2-hydroxymyristate (2HM) and 5 strains of E. cloacae complex not expressing 2-hydroxymyristate (2HM) were exposed to different concentrations of polymyxin B for 4 hours.

Substance: polymyxin B [polymixin B]
- Survival of strains after exposure to polymyxin B (FIG. 6): presence of 2-OH myristate on Lipid A generates resistance
